{
  "source": "patent US7311914B2",
  "about": "“MAGE-A4 antigenic peptides and uses thereof” (Ludwig Institute for Cancer Research, priority 2002, dated 2007)",
  "tested_on": "CTL F2",
  "test": "Peptide recognition assay: 51Cr release lysis by CTL F2 of peptide-pulsed autologous EBV-B cells",
  "format": "cell-based, human",
  "conditions": "for lysis by CTL F2 of autologous EBV-B cells incubated with peptide (first screening of 16 amino-acid long peptides, FIG. 3A): 1 μg/ml of each peptide, E:T ratio 5:1, chromium release after 4 h; for recognition by CTL F2 of targets pulsed with peptides modified at the C-terminus (FIG. 3C): very high and most probably not physiological concentration of peptide; for recognition by CTL F2 of targets pulsed with peptides modified at the C-terminus (FIG. 3C) / recognition by CTL F2 of peptides of different lengths (peptide titration, FIG. 3B): E:T 5:1, 4 h; for recognition by CTL F2 of peptides of different lengths (peptide titration, FIG. 3B): autologous EBV-B targets, 3-fold peptide dilutions, HPLC purified peptides; for EC50: CTL F2, E:T 5:1, 4 h chromium release (FIG. 3B), read-out: peptide concentration giving half maximal lysis of autologous EBV-B target cells",
  "data": [
    {"sequence": "FPVIFGKASESLKMIF (listed as Homo sapiens) [16-mer MAGE-A4 peptide, amino acids 148-163]", "values": [
      {"measurement": "lysis by CTL F2 of autologous EBV-B cells incubated with peptide (first screening of 16 amino-acid long peptides, FIG. 3A)", "result": "scored positive"}
    ]},
    {"sequence": "SESLKMIFL (listed as Homo sapiens) [nonapeptide with C-terminal G replaced by L]", "values": [
      {"measurement": "recognition by CTL F2 of targets pulsed with peptides modified at the C-terminus (FIG. 3C)", "result": "recognized"}
    ]},
    {"sequence": "SESLKMIFI (listed as Homo sapiens) [nonapeptide with C-terminal G replaced by I]", "values": [
      {"measurement": "recognition by CTL F2 of targets pulsed with peptides modified at the C-terminus (FIG. 3C)", "result": "recognized"}
    ]},
    {"sequence": "SESLKMIFG (listed as Homo sapiens) [MAGE-A4 nonapeptide]", "values": [
      {"measurement": "recognition by CTL F2 of peptides of different lengths (peptide titration, FIG. 3B)", "result": "not recognized"}
    ]},
    {"sequence": "SESLKMIFGIDVKEVD (listed as Homo sapiens) [16-mer MAGE-A4 peptide, amino acids 156-171]", "values": [
      {"measurement": "lysis by CTL F2 of autologous EBV-B cells incubated with peptide (first screening of 16 amino-acid long peptides, FIG. 3A)", "result": "scored positive"}
    ]},
    {"sequence": "SESLKMIFGI", "values": [
      {"measurement": "EC50", "result": 1, "unit": "nM"},
      {"measurement": "recognition by CTL F2 of peptides of different lengths (peptide titration, FIG. 3B)", "result": "scored positive"}
    ]},
    {"sequence": "SESLKMIF", "values": [
      {"measurement": "EC50", "result": 1, "unit": "nM"},
      {"measurement": "recognition by CTL F2 of peptides of different lengths (peptide titration, FIG. 3B)", "result": "scored positive"}
    ]}
  ]
}
